Measurements as given in PubChem BioAssay (NCI).
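Five compound concentrations were applied to cells in 96-well plates for 48 hours; endpoints were derived by simple linear interpolation of the resulting dose-response curve. TGI marks complete inhibition of growth.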

Columns and labels:
Assay in all cases: growth of human tumour cells (NCI), 48 h
[1] = tested on: BT-549 breast
[2] = tested on: DMS 114 small cell lung
[3] = tested on: OVCAR-5 ovarian
[4] = tested on: KM12 colon
[5] = tested on: RPMI-8226 leukemia
[6] = tested on: MDA-MB-231 breast
[7] = tested on: T-47D breast
[8] = tested on: OVCAR-3 ovarian
[9] = tested on: HL-60(TB) leukemia
[10] = tested on: HT29 colon
[11] = tested on: A549 NSCLC
[12] = tested on: XF 498 CNS
[13] = tested on: IGROV1 ovarian
[14] = tested on: M19-MEL melanoma
[15] = tested on: HCT-116 colon
[16] = tested on: HCC-2998 colon
[17] = tested on: OVCAR-4 ovarian
[18] = tested on: M14 melanoma
[19] = tested on: SF-295 CNS
[20] = tested on: MALME-3M melanoma
[21] = tested on: NCI/ADR-RES ovarian
[22] = tested on: COLO 205 colon
[23] = tested on: MDA-MB-435
[24] = tested on: UACC-62 melanoma
[25] = tested on: LOX IMVI melanoma
[26] = tested on: SW-620 colon
[27] = tested on: DLD-1 colon
[28] = tested on: MOLT-4 leukemia
[29] = tested on: SF-268 CNS
[30] = tested on: SN12C renal
[31] = tested on: TK-10 renal
[32] = tested on: HS 578T breast
[33] = tested on: SNB-75 CNS
[34] = tested on: NCI-H226 lung
[35] = tested on: SK-MEL-2 melanoma
[36] = tested on: SR leukemia
[37] = tested on: K-562 leukemia
[38] = tested on: RXF 393 renal
[39] = tested on: SF-539 CNS
[40] = tested on: SNB-78 CNS
[41] = tested on: ACHN renal
[42] = tested on: A498 renal
[43] = tested on: SK-MEL-5 melanoma
[44] = tested on: CCRF-CEM leukemia
[45] = tested on: EKVX NSCLC
[46] = tested on: PC-3 prostate
[47] = tested on: UO-31 renal
[48] = tested on: NCI-H460 lung
[49] = tested on: DU-145 prostate
[50] = tested on: HOP-92 NSCLC
[51] = tested on: SNB-19 CNS
[52] = tested on: LXFL 529 NSCLC
[53] = tested on: SK-OV-3 ovarian
[54] = tested on: UACC-257 melanoma
[55] = tested on: HCT-15 colon
[56] = tested on: MDA-N
[57] = tested on: 786-0 renal
[58] = tested on: DMS 273 small cell lung
[59] = tested on: MCF7 breast
[60] = tested on: NCI-H23 lung
[61] = tested on: OVCAR-8 ovarian
[62] = tested on: U251 CNS
[63] = tested on: SK-MEL-28 melanoma
[64] = tested on: KM20L2 colon
[65] = tested on: NCI-H522 lung
[66] = tested on: HOP-62 NSCLC
[67] = tested on: CAKI-1 renal

Structure (SMILES): O=c1c2ccccc2sc2nc(CCl)nn12
- TGI [1]: > 91.6 µM
- TGI [2]: 48.6 µM
- TGI [3]: > 100 µM
- TGI [4]: > 100 µM
- TGI [5]: > 100 µM
- TGI [6]: 23.4 µM
- TGI [7]: 19.9 µM
- TGI [8]: > 100 µM
- TGI [9]: 44.3 µM
- TGI [10]: 66 µM
- TGI [11]: 93 µM
- TGI [12]: 1.82 µM
- TGI [13]: 49.5 µM
- TGI [14]: > 62.8 µM
- TGI [15]: 16.3 µM
- TGI [16]: 31.4 µM
- TGI [17]: > 100 µM
- TGI [18]: 60.3 µM
- TGI [19]: > 82.9 µM
- TGI [20]: 49.4 µM
- TGI [21]: > 100 µM
- TGI [22]: 30.2 µM
- TGI [23]: 29.6 µM
- TGI [24]: 17 µM
- TGI [25]: > 100 µM
- TGI [26]: 45.6 µM
- TGI [27]: 21.3 µM
- TGI [28]: > 100 µM
- TGI [29]: 60.6 µM
- TGI [30]: 29.4 µM
- TGI [31]: 25.4 µM
- TGI [32]: 38.1 µM
- TGI [33]: 55.2 µM
- TGI [34]: > 100 µM
- TGI [35]: > 100 µM
- TGI [36]: 37.7 µM
- TGI [37]: 28.9 µM
- TGI [38]: 24.5 µM
- TGI [39]: > 80.4 µM
- TGI [40]: > 100 µM
- TGI [41]: 21.6 µM
- TGI [42]: 8.42 µM
- TGI [43]: > 100 µM
- TGI [44]: > 100 µM
- TGI [45]: 29.1 µM
- TGI [46]: 10.7 µM
- TGI [47]: 22.8 µM
- TGI [48]: 16.5 µM
- TGI [49]: 21.2 µM
- TGI [50]: 14.8 µM
- TGI [51]: > 100 µM
- TGI [52]: 62.5 µM
- TGI [53]: 37.5 µM
- TGI [54]: 32.9 µM
- TGI [55]: 18.7 µM
- TGI [56]: 17.3 µM
- TGI [57]: 34.1 µM
- TGI [58]: 22.2 µM
- TGI [59]: 36.3 µM
- TGI [60]: 28.5 µM
- TGI [61]: > 100 µM
- TGI [62]: > 100 µM
- TGI [63]: 28.3 µM
- TGI [64]: 38 µM
- TGI [65]: 67.8 µM
- TGI [66]: > 100 µM
- TGI [67]: 22.3 µM

Structure (SMILES): C[N+](C)(C)CC1CCc2ccccc2C1=O (centres undefined)
- TGI [1]: 29.3 µM
- TGI [2]: 31 µM
- TGI [3]: 29.7 µM
- TGI [4]: 24.8 µM
- TGI [5]: 18.4 µM
- TGI [6]: 15.8 µM
- TGI [7]: 26.2 µM
- TGI [8]: 11.8 µM
- TGI [9]: 27.1 µM
- TGI [10]: 15.2 µM
- TGI [11]: 52.3 µM
- TGI [12]: 5.56 µM
- TGI [13]: 28.7 µM
- TGI [14]: 30.8 µM
- TGI [15]: 18.9 µM
- TGI [16]: 28.8 µM
- TGI [17]: 9.67 µM
- TGI [18]: 17.9 µM
- TGI [19]: 49.2 µM
- TGI [20]: 3.68 µM
- TGI [21]: 42.1 µM
- TGI [22]: 19.3 µM
- TGI [23]: 11 µM
- TGI [24]: 12 µM
- TGI [25]: 41.5 µM
- TGI [26]: 3.34 µM
- TGI [27]: 17 µM
- TGI [28]: 7.63 µM
- TGI [29]: 47.4 µM
- TGI [30]: 16.3 µM
- TGI [31]: 30.5 µM
- TGI [32]: 35.4 µM
- TGI [33]: 30.7 µM
- TGI [34]: 43.3 µM
- TGI [35]: 31.2 µM
- TGI [36]: 9.23 µM
- TGI [37]: 21.9 µM
- TGI [38]: 29.6 µM
- TGI [39]: 29.9 µM
- TGI [40]: 49.4 µM
- TGI [41]: 14.4 µM
- TGI [42]: 50.4 µM
- TGI [43]: 29.7 µM
- TGI [44]: > 37.9 µM
- TGI [45]: 18.2 µM
- TGI [46]: 29.1 µM
- TGI [47]: 32.7 µM
- TGI [48]: 36.7 µM
- TGI [49]: 32.6 µM
- TGI [50]: 15.9 µM
- TGI [51]: 28.9 µM
- TGI [52]: 8.54 µM
- TGI [53]: 32.8 µM
- TGI [54]: 27.1 µM
- TGI [55]: 6.61 µM
- TGI [56]: 12.4 µM
- TGI [57]: 19.2 µM
- TGI [58]: 15.1 µM
- TGI [59]: 5.62 µM
- TGI [60]: 29.2 µM
- TGI [61]: 33.5 µM
- TGI [62]: 10.2 µM
- TGI [63]: 16.9 µM
- TGI [64]: 38.2 µM
- TGI [65]: 0.318 µM
- TGI [66]: 49.2 µM
- TGI [67]: 9.31 µM
